≈ marks a conversion by molar mass, not a printed value.

The text below walks through data of ChEMBL document CHEMBL5120795, “Small-Molecule Inhibitors of Tankyrases as Prospective Therapeutics for Cancer” (J Med Chem, 2022).

Data set [1] concerns the target T1, Poly [ADP-ribose] polymerase tankyrase-2 (Homo sapiens, UniProt Q9H2K2).
T1 sequence (Q9H2K2 whole entry): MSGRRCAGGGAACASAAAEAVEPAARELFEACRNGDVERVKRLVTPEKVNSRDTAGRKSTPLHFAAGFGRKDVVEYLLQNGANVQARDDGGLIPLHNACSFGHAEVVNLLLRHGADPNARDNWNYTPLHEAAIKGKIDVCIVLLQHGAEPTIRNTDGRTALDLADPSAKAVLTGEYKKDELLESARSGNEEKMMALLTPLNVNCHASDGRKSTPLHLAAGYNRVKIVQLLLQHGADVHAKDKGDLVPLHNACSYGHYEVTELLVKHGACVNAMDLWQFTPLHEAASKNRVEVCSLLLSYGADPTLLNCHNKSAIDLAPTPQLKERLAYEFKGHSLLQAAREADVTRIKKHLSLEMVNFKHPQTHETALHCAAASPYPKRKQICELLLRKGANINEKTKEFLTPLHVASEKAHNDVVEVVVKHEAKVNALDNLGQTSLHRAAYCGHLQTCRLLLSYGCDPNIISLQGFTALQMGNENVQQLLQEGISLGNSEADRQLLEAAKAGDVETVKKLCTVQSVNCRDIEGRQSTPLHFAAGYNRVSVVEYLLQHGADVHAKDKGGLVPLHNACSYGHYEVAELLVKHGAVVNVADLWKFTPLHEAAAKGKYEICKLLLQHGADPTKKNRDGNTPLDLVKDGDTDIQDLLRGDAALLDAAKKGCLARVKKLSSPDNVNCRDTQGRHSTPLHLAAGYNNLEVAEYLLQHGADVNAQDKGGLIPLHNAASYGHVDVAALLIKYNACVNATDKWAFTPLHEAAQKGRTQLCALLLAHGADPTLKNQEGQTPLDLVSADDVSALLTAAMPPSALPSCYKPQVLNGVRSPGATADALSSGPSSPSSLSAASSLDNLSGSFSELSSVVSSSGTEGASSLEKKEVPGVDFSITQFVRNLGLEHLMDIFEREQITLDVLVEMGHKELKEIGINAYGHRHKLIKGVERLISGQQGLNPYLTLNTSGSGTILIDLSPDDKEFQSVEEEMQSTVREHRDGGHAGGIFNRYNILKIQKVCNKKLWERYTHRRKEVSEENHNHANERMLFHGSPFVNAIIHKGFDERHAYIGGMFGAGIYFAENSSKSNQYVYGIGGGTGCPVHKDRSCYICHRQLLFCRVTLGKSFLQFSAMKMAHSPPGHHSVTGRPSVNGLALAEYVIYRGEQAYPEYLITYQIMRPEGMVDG
The experiment in a line: Binding affinity to ARC4 domain at TNKS2 (unknown origin) assessed as dissociation constant.

Data set [2] in a line: Toxicity in mouse xenografted with COLO 320DM cells assessed as reduction in body weight at 60 mg/kg, po daily relative to control. It counts as organism-based. Also noted: scale not given: the % may be the effect or the level left. As to conditions: in vivo.
The nature of data set [3]: Toxicity in mouse xenografted with COLO 320DM cells assessed as reduction in body weight at 30 mg/kg, ip daily relative to control. It counts as organism-based. Set-up: scale not given: the % may be the effect or the level left. As to conditions: in vivo.
Data set [4] addresses T2, Poly [ADP-ribose] polymerase 1 (Homo sapiens, UniProt P09874). The experiment in a line: Inhibition of PARP1 (unknown origin).
For data set [5], the target named is T1, Poly [ADP-ribose] polymerase tankyrase-2. The experiment in a line: Inhibition of TNKS2 (unknown origin).
The target in data set [6] is T3, Poly [ADP-ribose] polymerase 2 (Homo sapiens, UniProt Q9UGN5). The experiment in a line: Inhibition of PAPR2 (unknown origin).
T3 sequence (Q9UGN5 whole entry): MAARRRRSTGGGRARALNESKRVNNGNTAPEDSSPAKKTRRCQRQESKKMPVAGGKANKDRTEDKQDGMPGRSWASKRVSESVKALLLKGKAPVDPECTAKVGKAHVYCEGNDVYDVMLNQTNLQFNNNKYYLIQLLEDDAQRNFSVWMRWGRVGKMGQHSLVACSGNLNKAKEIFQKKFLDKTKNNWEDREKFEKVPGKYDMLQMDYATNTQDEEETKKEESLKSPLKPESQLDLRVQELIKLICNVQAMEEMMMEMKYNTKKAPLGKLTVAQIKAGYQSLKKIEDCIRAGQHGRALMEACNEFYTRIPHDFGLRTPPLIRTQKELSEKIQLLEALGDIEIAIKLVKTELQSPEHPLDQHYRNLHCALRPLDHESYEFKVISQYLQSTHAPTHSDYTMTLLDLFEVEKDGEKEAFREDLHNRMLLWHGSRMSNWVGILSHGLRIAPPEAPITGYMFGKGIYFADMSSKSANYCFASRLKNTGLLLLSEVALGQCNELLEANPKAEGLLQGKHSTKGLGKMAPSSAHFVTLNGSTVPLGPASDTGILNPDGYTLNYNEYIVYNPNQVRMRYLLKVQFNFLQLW
Data set [7] can be described thus: physchem. The conditions noted are these: aqueous, pH 7.4.
Data set [8] in a line: Stability in mouse liver microsomes assessed as compound remaining measured after 30 mins relative to control. It counts as ADME, Microsome. The conditions noted are these: read-out: Stability. (In general: Liver microsomes are vesicles of endoplasmic reticulum, rich in cytochrome P450 enzymes.)
Data set [9] concerns the target T4, Poly [ADP-ribose] polymerase tankyrase-1 (Homo sapiens, UniProt O95271).
T4 sequence (O95271 whole entry): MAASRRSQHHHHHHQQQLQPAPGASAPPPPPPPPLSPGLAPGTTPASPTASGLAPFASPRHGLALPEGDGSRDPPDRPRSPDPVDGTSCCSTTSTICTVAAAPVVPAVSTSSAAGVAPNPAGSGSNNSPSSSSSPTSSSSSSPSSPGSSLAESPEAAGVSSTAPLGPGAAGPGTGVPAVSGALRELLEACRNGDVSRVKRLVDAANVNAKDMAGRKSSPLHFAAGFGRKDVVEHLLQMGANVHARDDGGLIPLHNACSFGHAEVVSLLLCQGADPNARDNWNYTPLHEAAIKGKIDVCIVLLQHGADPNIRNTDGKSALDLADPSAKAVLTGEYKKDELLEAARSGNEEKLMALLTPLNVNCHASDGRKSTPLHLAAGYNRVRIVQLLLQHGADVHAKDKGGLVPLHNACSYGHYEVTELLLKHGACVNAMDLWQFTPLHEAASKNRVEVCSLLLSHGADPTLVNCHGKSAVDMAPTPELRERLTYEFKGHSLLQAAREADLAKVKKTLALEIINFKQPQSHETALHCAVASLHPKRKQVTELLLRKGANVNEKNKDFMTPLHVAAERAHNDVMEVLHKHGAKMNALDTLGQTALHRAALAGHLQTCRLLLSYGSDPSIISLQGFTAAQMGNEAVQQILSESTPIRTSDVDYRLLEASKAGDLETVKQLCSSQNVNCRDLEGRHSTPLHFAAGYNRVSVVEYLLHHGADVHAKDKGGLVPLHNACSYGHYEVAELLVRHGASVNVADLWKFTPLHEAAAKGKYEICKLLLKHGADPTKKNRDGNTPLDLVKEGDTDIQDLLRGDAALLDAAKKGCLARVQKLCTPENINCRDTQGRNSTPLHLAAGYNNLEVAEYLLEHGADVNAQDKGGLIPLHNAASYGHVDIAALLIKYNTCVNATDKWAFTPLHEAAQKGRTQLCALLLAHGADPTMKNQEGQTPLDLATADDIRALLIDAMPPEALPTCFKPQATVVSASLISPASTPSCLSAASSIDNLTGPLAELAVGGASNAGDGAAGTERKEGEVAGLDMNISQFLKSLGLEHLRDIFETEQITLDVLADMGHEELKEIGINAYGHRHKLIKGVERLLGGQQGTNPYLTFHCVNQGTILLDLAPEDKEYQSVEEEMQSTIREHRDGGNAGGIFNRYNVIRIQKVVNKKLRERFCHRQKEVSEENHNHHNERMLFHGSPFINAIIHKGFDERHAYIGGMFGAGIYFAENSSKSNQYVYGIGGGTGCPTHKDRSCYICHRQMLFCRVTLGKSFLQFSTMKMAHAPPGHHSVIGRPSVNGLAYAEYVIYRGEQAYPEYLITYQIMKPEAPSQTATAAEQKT
Put plainly: Inhibition of TNKS1 (unknown origin).

A short description of data set [10]: Antitumor activity against human MNNG/HOS cells xenografted in mouse assessed as decrease in tumor growth rate at 5 mg/kg, IT administered every other day for 12 days relative to control. It counts as functional, HOS-TE85. Also noted: scale not given: the % may be the effect or the level left. As to conditions: time 12 day.
The nature of data set [11]: Oral bioavailability in mouse relative to control. It counts as ADME, organism-based. As to conditions: in vivo.
Data set [12] in a line: Disruption of ARC5 domain of TNKS1 (unknown origin)/USP25 (unknown origin) protein interaction assessed as inhibition constant. Also noted: species or system Homo sapiens.
Data set [13] deals with SW480. The experiment in a line: Antitumor activity against human SW480 cells xenografted in mouse assessed as reduction in tumor size at 300 mg/kg, IP relative to control. It counts as functional. Set-up: scale not given: the % may be the effect or the level left.
Data set [14] deals with SW480. The experiment in a line: Antitumor activity against human SW480 cells xenografted in mouse assessed as reduction in tumor size at 150 mg/kg, IP relative to control. It counts as functional. Set-up: scale not given: the % may be the effect or the level left. (In general: In xenograft studies the graft and the host belong to different species.)
Data set [15] addresses T2, Poly [ADP-ribose] polymerase 1. Put plainly: Inhibition of PARP1 (unknown origin) at 1 uM relative to control.
The target in data set [16] is T3, Poly [ADP-ribose] polymerase 2. Put plainly: Inhibition of PARP2 (unknown origin) at 1 uM relative to control.
The target in data set [17] is T5, Poly [ADP-ribose] polymerase tankyrase-1 (Homo sapiens) (UniProt O95271).
T5 sequence (whole entry): T4 sequence (O95271 whole entry)
Put plainly: Inhibition of TNKS1 (unknown origin) at 1 uM relative to control.

Data set [18] has as its target T6, Poly [ADP-ribose] polymerase tankyrase-2 (Homo sapiens) (UniProt Q9H2K2).
T6 sequence (whole entry): T1 sequence (Q9H2K2 whole entry)
The experiment in a line: Inhibition of TNKS2 (unknown origin) at 1 uM relative to control.

T2 sequence (P09874 whole entry): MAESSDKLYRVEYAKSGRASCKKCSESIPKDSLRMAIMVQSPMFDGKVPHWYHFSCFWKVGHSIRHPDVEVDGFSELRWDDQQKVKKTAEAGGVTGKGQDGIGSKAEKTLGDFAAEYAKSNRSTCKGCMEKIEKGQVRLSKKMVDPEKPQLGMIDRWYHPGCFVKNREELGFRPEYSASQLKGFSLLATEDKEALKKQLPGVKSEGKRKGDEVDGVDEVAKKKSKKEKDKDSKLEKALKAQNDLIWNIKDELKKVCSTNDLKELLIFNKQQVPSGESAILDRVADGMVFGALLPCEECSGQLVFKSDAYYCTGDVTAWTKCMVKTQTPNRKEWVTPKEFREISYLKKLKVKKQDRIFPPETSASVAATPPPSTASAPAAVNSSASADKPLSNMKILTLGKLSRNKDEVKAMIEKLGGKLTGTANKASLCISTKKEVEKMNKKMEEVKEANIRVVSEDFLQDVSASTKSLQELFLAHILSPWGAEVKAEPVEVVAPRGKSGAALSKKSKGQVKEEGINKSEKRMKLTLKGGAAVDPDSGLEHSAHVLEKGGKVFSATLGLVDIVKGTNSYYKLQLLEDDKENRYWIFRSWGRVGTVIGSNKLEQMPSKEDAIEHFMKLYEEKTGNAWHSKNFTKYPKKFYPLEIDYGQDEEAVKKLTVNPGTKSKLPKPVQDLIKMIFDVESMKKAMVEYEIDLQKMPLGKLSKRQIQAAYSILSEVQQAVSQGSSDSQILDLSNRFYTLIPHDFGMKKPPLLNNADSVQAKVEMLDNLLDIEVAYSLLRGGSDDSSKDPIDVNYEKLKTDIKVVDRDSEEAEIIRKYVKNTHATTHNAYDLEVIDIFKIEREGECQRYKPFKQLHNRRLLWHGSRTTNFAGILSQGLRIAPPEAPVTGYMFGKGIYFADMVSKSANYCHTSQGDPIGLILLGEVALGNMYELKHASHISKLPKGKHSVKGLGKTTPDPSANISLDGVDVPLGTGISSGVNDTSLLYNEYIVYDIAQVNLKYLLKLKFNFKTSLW

In general, Kd refers to the concentration at which binding is half-saturated. Consider `CC(=O)N[C@@H](CCCNC(=N)N)C(=O)N[C@@H](CCC(=O)O)C(=O)N[C@H]1CCn2cc(nn2)CCCc2cn(nn2)CC[C@@H](C(=O)N[C@@H](CCC(=O)O)C(N)=O)NC(=O)CNC(=O)[C@H](CC(=O)O)NC(=O)CNC1=O`, for which the Kd in data set [1] worked out at 0.6 µM. `CS(=O)(=O)c1ccc(-c2nnc(/C=C/c3nnc(-c4ccc(C#N)cc4)o3)n2-c2ccccc2Cl)nc1`: the Activity in data set [2] and in [3] was above 15% in each case. The IC50 is the concentration that inhibits the measured activity by half. Consider `COc1ccc(C2(CNC(=O)c3ccc(NC(=O)c4ccco4)cc3)CCOCC2)cc1`, for which the 50% inhibitory concentration (IC50) in data set [4] worked out at 1.8 µM; in data set [5], 1.9 µM. On to `COc1ccc(-n2c(SCCCN3C(=O)c4cccc5cccc(c45)C3=O)nnc2-c2ccncc2)cc1`, for which half-maximal inhibition in data set [5] (IC50) was put at 0.015 µM. As to `Cc1cc(NCCc2ccc(O)cc2)c2nncn2n1`, the IC50 in [4] and in data set [6] was above 10 µM throughout. A word on the solubility: it is the concentration that dissolves in the medium under given conditions. With `COc1ccccc1N1CCN(c2nc3c(c(=O)[nH]2)CCCC3)CC1`, the IC50 in [4] is above 100 µM. In [7], this molecule returned a solubility of 10 µg/mL (≈ 29.4 µM). The remaining at 0.5 h in data set [8] was 0%. As to `O=C(Nc1cccc2c(=O)[nH]ccc12)[C@H]1CCCNC1`, the half-maximal inhibitory concentration (IC50) is above 10 µM in [4], 0.003 µM in data set [5] and 0.009 µM in data set [9]. For `O=C(Nc1cccc2cccnc12)c1ccc(N2C(=O)[C@@H]3[C@H](C2=O)[C@@H]2C=C[C@H]3C2)cc1`, the Activity in data set [10] is recorded as 73%. The term bioavailability denotes the share of a dose that reaches the circulation, judged against a reference dose that is usually intravenous. Consider `C[C@@H]1CN(c2cc(F)c3c(c2)N(C)C(=O)C32CCN(c3nc4c(c(=O)[nH]3)CCCN4C)CC2)C[C@H](C)O1`, for which the bioavailability in [11] turned out to be 100%. What is called Ki is the equilibrium dissociation constant of an inhibitor or competing ligand from its target. Turning to `CCc1ccc(OCC(=O)Nc2sc(C)c(C)c2C(N)=O)c(F)c1`, in data set [12], the Ki stood at 20.5 µM. In the case of `COc1ccc(-n2c(SCc3nc(-c4ccc(C)cc4)no3)nnc2-c2ccncc2)cc1`, the Activity is 35% in data set [13] and 33% in data set [14]. As to `CC(=O)N[C@@H](CCCNC(=N)N)C(=O)N[C@@H](CCC(=O)O)C(=O)N[C@H]1CCn2cc(nn2)-c2cc(C(=O)O)cc(c2)-c2cn(nn2)CC[C@@H](C(=O)N[C@@H](CCC(=O)O)C(N)=O)NC(=O)CNC(=O)[C@H](CC(=O)O)NC(=O)CNC1=O`, in data set [1], the dissociation constant (Kd) amounted to 0.44 µM. Usually inhibition stands for the change of the read-out against control, counted positive when it falls. `COc1cc2ncnc(N3CCC(CN4Cc5ccccc5N(c5ccc(F)c(C#N)c5)C4=O)CC3)c2cc1OC`: the inhibition in data set [15] amounted to 0%; in data set [16], 0%; in [17], 100%; in [18], 100%.
